Species: Rattus norvegicus
Assay: Open TG-GATES - Regimen: Daily Repeat
Assay type: toxicity, organism-based, Sprague-Dawley
Design: regimen Daily Repeat, gender Male, age 6 weeks
Settings: in vivo, po, 50 mg/kg, route gavage, dose level Middle; for APTT / Bas / Eos / Fbg / Hb / Ht / Lym / MCH / MCHC / MCV / Mono / Neu / PT / Plat / RBC / Ret / WBC: tissue Blood; for KIDNEY_L / KIDNEY_R / KIDNEY_TOTAL: tissue Kidney; for LIVER: tissue Liver; for A/G / ALP / ALT / AST / BUN / CRE / Ca / Cl / DBIL / GLC / IP / K / LDH / Na / PL / RALB / TBIL / TC / TG / TP / gamma-GTP: tissue Plasma

Nc1nc(N)c2nc(-c3ccccc3)c(N)nc2n1
TERMINAL_BW (72 h, time 3 day): 241.1 g
APTT (72 h, time 3 day): 15.9 s
Bas (72 h, time 3 day): 0%
Eos (72 h, time 3 day): 1%
Fbg (72 h, time 3 day): 334.2 mg/dL
Hb (72 h, time 3 day): 13.9 g/dL
Ht (72 h, time 3 day): 40.9%
Lym (72 h, time 3 day): 74.4%
MCH (72 h, time 3 day): 21.2 pg
MCHC (72 h, time 3 day): 34.2%
MCV (72 h, time 3 day): 62.1 fL
Mono (72 h, time 3 day): 2.8%
Neu (72 h, time 3 day): 21.4%
PT (72 h, time 3 day): 13.8 s
Plat (72 h, time 3 day): 119.3 x10_4/uL
RBC (72 h, time 3 day): 658 x10_4/ul
Ret (72 h, time 3 day): 5.6%
WBC (72 h, time 3 day): 93.5 x10_2/uL
KIDNEY_L (72 h, time 3 day): 1.1 g
KIDNEY_R (72 h, time 3 day): 1.1 g
KIDNEY_TOTAL (72 h, time 3 day): 2.2 g
LIVER (72 h, time 3 day): 11.5 g
A/G (72 h, time 3 day): 0.9
ALP (72 h, time 3 day): 1521.8 IU/L
ALT (72 h, time 3 day): 42.2 IU/L
AST (72 h, time 3 day): 65.2 IU/L
BUN (72 h, time 3 day): 15.2 mg/dL
CRE (72 h, time 3 day): 0.2 mg/dL
Ca (72 h, time 3 day): 10.9 mg/dL
Cl (72 h, time 3 day): 105.4 meq/L
DBIL (72 h, time 3 day): 0.008 mg/dL
GLC (72 h, time 3 day): 175 mg/dL
IP (72 h, time 3 day): 8.2 mg/dL
K (72 h, time 3 day): 3.9 meq/L
LDH (72 h, time 3 day): 56.2 IU/L
Na (72 h, time 3 day): 143.6 meq/L
PL (72 h, time 3 day): 166.2 mg/dL
RALB (72 h, time 3 day): 2.6 g/dL
TBIL (72 h, time 3 day): 0.04 mg/dL
TC (72 h, time 3 day): 85 mg/dL
TG (72 h, time 3 day): 126.2 mg/dL
TP (72 h, time 3 day): 5.5 g/dL
gamma-GTP (72 h, time 3 day): 1 IU/L
TERMINAL_BW ([…], time 7 day): 280.2 g
TERMINAL_BW ([…], time 14 day): 333.9 g
TERMINAL_BW ([…], time 28 day): 402.9 g
APTT ([…], time 7 day): 16.3 s
Bas ([…], time 7 day): 0%
Eos ([…], time 7 day): 1%
Fbg ([…], time 7 day): 335.4 mg/dL
Hb ([…], time 7 day): 13.8 g/dL
Ht ([…], time 7 day): 42.3%
Lym ([…], time 7 day): 77.8%
MCH ([…], time 7 day): 20.2 pg
MCHC ([…], time 7 day): 32.6%
MCV ([…], time 7 day): 62.1 fL
Mono ([…], time 7 day): 2%
Neu ([…], time 7 day): 18.6%
PT ([…], time 7 day): 13.9 s
Plat ([…], time 7 day): 134.1 x10_4/uL
RBC ([…], time 7 day): 680.6 x10_4/ul
Ret ([…], time 7 day): 5.3%
WBC ([…], time 7 day): 121.8 x10_2/uL
APTT ([…], time 14 day): 18.2 s
Bas ([…], time 14 day): 0.2%
Eos ([…], time 14 day): 1%
Fbg ([…], time 14 day): 312.2 mg/dL
Hb ([…], time 14 day): 14.5 g/dL
Ht ([…], time 14 day): 44.6%
Lym ([…], time 14 day): 80.6%
MCH ([…], time 14 day): 19.6 pg
MCHC ([…], time 14 day): 32.6%
MCV ([…], time 14 day): 59.9 fL
Mono ([…], time 14 day): 2.6%
Neu ([…], time 14 day): 15.4%
PT ([…], time 14 day): 12.9 s
Plat ([…], time 14 day): 127.2 x10_4/uL
RBC ([…], time 14 day): 744.2 x10_4/ul
Ret ([…], time 14 day): 4.2%
WBC ([…], time 14 day): 93 x10_2/uL
APTT ([…], time 28 day): 18.2 s
Bas ([…], time 28 day): 0.4%
Eos ([…], time 28 day): 1.4%
Fbg ([…], time 28 day): 283.2 mg/dL
Hb ([…], time 28 day): 15.4 g/dL
Ht ([…], time 28 day): 45.4%
Lym ([…], time 28 day): 80%
MCH ([…], time 28 day): 19.1 pg
MCHC ([…], time 28 day): 33.9%
MCV ([…], time 28 day): 56.2 fL
Mono ([…], time 28 day): 1.6%
Neu ([…], time 28 day): 16.2%
PT ([…], time 28 day): 13.5 s
Plat ([…], time 28 day): 105.5 x10_4/uL
RBC ([…], time 28 day): 807 x10_4/ul
Ret ([…], time 28 day): 2.4%
WBC ([…], time 28 day): 101.1 x10_2/uL
KIDNEY_L ([…], time 7 day): 1.2 g
KIDNEY_R ([…], time 7 day): 1.2 g
KIDNEY_TOTAL ([…], time 7 day): 2.4 g
KIDNEY_L ([…], time 14 day): 1.3 g
KIDNEY_R ([…], time 14 day): 1.3 g
KIDNEY_TOTAL ([…], time 14 day): 2.6 g
KIDNEY_L ([…], time 28 day): 1.4 g
KIDNEY_R ([…], time 28 day): 1.4 g
KIDNEY_TOTAL ([…], time 28 day): 2.8 g
LIVER ([…], time 7 day): 12.7 g
LIVER ([…], time 14 day): 14.7 g
LIVER ([…], time 28 day): 15.8 g
A/G ([…], time 7 day): 0.9
ALP ([…], time 7 day): 1449.6 IU/L
ALT ([…], time 7 day): 46.8 IU/L
AST ([…], time 7 day): 66.6 IU/L
BUN ([…], time 7 day): 17.6 mg/dL
CRE ([…], time 7 day): 0.2 mg/dL
Ca ([…], time 7 day): 11 mg/dL
Cl ([…], time 7 day): 106 meq/L
DBIL ([…], time 7 day): 0.012 mg/dL
GLC ([…], time 7 day): 179 mg/dL
IP ([…], time 7 day): 7.7 mg/dL
K ([…], time 7 day): 4.3 meq/L
LDH ([…], time 7 day): 60 IU/L
Na ([…], time 7 day): 142.4 meq/L
PL ([…], time 7 day): 154.6 mg/dL
RALB ([…], time 7 day): 2.6 g/dL
TBIL ([…], time 7 day): 0.07 mg/dL
TC ([…], time 7 day): 77.2 mg/dL
TG ([…], time 7 day): 128.2 mg/dL
TP ([…], time 7 day): 5.5 g/dL
gamma-GTP ([…], time 7 day): 1.2 IU/L
A/G ([…], time 14 day): 0.9
ALP ([…], time 14 day): 1311.6 IU/L
ALT ([…], time 14 day): 43.2 IU/L
AST ([…], time 14 day): 64.2 IU/L
BUN ([…], time 14 day): 18 mg/dL
CRE ([…], time 14 day): 0.2 mg/dL
Ca ([…], time 14 day): 10.6 mg/dL
Cl ([…], time 14 day): 104.8 meq/L
DBIL ([…], time 14 day): 0.014 mg/dL
GLC ([…], time 14 day): 191.8 mg/dL
IP ([…], time 14 day): 8.1 mg/dL
K ([…], time 14 day): 3.7 meq/L
LDH ([…], time 14 day): 69.6 IU/L
Na ([…], time 14 day): 144.4 meq/L
PL ([…], time 14 day): 149.2 mg/dL
RALB ([…], time 14 day): 2.7 g/dL
TBIL ([…], time 14 day): 0.07 mg/dL
TC ([…], time 14 day): 70.2 mg/dL
TG ([…], time 14 day): 137 mg/dL
TP ([…], time 14 day): 5.9 g/dL
gamma-GTP ([…], time 14 day): 1 IU/L
A/G ([…], time 28 day): 0.8
ALP ([…], time 28 day): 1251 IU/L
ALT ([…], time 28 day): 39.2 IU/L
AST ([…], time 28 day): 62.4 IU/L
BUN ([…], time 28 day): 17.6 mg/dL
CRE ([…], time 28 day): 0.2 mg/dL
Ca ([…], time 28 day): 10.7 mg/dL
Cl ([…], time 28 day): 104.2 meq/L
DBIL ([…], time 28 day): 0.014 mg/dL
GLC ([…], time 28 day): 188.2 mg/dL
IP ([…], time 28 day): 6.7 mg/dL
K ([…], time 28 day): 3.8 meq/L
LDH ([…], time 28 day): 52.6 IU/L
Na ([…], time 28 day): 143.6 meq/L
PL ([…], time 28 day): 139.2 mg/dL
RALB ([…], time 28 day): 2.7 g/dL
TBIL ([…], time 28 day): 0.06 mg/dL
TC ([…], time 28 day): 64.6 mg/dL
TG ([…], time 28 day): 154 mg/dL
TP ([…], time 28 day): 6.1 g/dL
gamma-GTP ([…], time 28 day): 1 IU/L

Source: ChEMBL document CHEMBL3885861, “Open TG-GATES”
